Common to all, as to assay type: in vivo, rat
The subject of data set [1] is rats with unilateral carotid artery ligation and 12% oxygen atmosphere. The data set can be described thus: Vascular event model (unilateral carotid artery ligation plus 12% oxygen): brain damage and GSH. How it is done:
Nine to eleven week old rats were obtained and housed as described in Example 1A. Animals were treated in accordance with the guidelines of the Canadian Council on Animal Care.
The rats were randomly divided into two groups. Both groups of rats underwent unilateral carotid artery ligation and were then subjected to a 12% oxygen atmosphere for 35 minutes. Fifteen minutes after insult, rats of one group received an initial dose of OTC (12 mmoles/kg body weight) and rats of the other group receive the phosphate-buffered saline vehicle (“saline”). Rats received subsequent doses of OTC (4 mmoles/kg body weight) or saline, as appropriate, every 12 hours for 3 days.
Rats were sacrificed 1 week following insult and brain damage was assessed.
Brain damage following a vascular event was assessed using the method of Thornhill, et al. (Brain Res. 825(1-2):36-45 (1999).

Data set [2] deals with Wistar rats with clip compression injury at the T6 spinal cord level. The data set can be described thus: Spinal cord GSH content after 50 g clip compression injury at T6. Particulars: 26 hours following injury and 2 hours following OTC administration; versus saline P=0.0033; FIG. 4. How it is done:
(§1) Adult male Wistar rats (˜320 g) were obtained from Charles River Canada and housed in a temperature-regulated animal facility, exposed to a 12 hour light/dark cycle and had free access to food and water. Animals were treated in accordance with the guidelines of the Canadian Council on Animal Care. Prior in surgery, the rats received the analgesic Buprenorphine-hydrochloride subcutaneously at a dose of 0.05 mg/kg and then every 12 hours for the first 72 hours following surgery. Anesthesia was performed with Halothane (5% induction and 1% maintenance). Laminectomy was performed aseptically at T5-T6 to expose the spinal cord. A 5-second clip compression injury was induced at the T6 spinal cord level using a modified Kerr-Lougheed aneurysm clip with a calibrated force of 50 g as described in Rivlin et al. (Surg. Neurol., 9, 39-43, 1979) and Khan et al. (Can. J. Neurol. Sci., 10, 161-165, 1983). […]
(§2) A total of 54 animals were used to determine the onset of oxidative stress following insult. […] Spinal cord segments were frozen in liquid nitrogen and stored at −80° C. until analyzed.
GSH was measured using 5,5′-dithio-bis(2-nitrobenzoic) acid-derivatization (“DTNB”) followed by HPLC and UV detection. […] The homogenates were centrifuged at 10,000 g for 15 min and supernatants collected, derivatized and analyzed using the Shimadzu reversed-phase HPLC with ultraviolet detection. […]

The test system is the same in data set [3]. The data set can be described thus: Functional recovery after spinal cord compression (angleboard, modified Tarlov score, BBB scale). How it is done: as §1, with “cord.” for “cord. A 5-second clip compression injury was induced at the T6 spinal cord level using a modified Kerr-Lougheed aneurysm clip with a calibrated force of 50 g as described in Rivlin et al. (Surg. Neurol., 9, 39-43, 1979) and Khan et al. (Can. J. Neurol. Sci., 10, 161-165, 1983).”
A semiquantitative assessment of hindlimb function during open field walking gas performed using the modified Tarlov score (Tariq et al.). Spontaneous activity of hind limb was scored as follows: 0=total paraplegia of hindlimbs; 1=no spontaneous movements but responds to hindlimb pinch; 2=spontaneous movement; 3=able to support weight but unable to walk; 4=walks with gross deficit; 5=walks with mild deficit on broad flat surface, 6=able to walk on broad flat surface and support weight on a 1.8 cm wide ledge; 7=walks on ledge. […]

Data set [4] is described as follows: Body weight after spinal cord clip compression injury. Particulars: T6 clip compression; OTC 12 mmoles/kg i.p. 30 min after injury, then 4 mmoles/kg every 12 h for five days; pre-surgery 328.3±4.2 g; saline 403.9±9.5 g; P=0.0337. How it is done:
Adult male Wistar rats (˜320 g) were obtained from Charles River Canada and housed in a temperature-regulated animal facility, exposed to a 12 hour light/dark cycle and had free access to food and water. Animals were treated in accordance with the guidelines of the Canadian Council on Animal Care. Prior in surgery, the rats received the analgesic Buprenorphine-hydrochloride subcutaneously at a dose of 0.05 mg/kg and then every 12 hours for the first 72 hours following surgery. Anesthesia was performed with Halothane (5% induction and 1% maintenance). Laminectomy was performed aseptically at T5-T6 to expose the spinal cord. A 5-second clip compression injury was induced at the T6 spinal cord level using a modified Kerr-Lougheed aneurysm clip with a calibrated force of 50 g as described in Rivlin et al. (Surg. Neurol., 9, 39-43, 1979) and Khan et al. (Can. J. Neurol. Sci., 10, 161-165, 1983). For delivery of drug or saline vehicle a sterile catheter was placed subcutaneously running from the dorsum to enter the peritoneal cavity ventrally; this was done before the laminectomy was performed. Thirty minutes following spinal cord compression an initial dose of OTC or phosphate-buffered saline vehicle (“saline”) was delivered intraperitoneally and then subsequent doses were administered every 12 hours for the next five days. […]

In data set [5] the test system is Wistar rats with clip compression injury at the T6 spinal cord level. Description: Spinal cord histomorphometry (luxol fast blue white matter) 6 weeks after injury. How it is done: as §1, with “cord.” for “cord. A 5-second clip compression injury was induced at the T6 spinal cord level using a modified Kerr-Lougheed aneurysm clip with a calibrated force of 50 g as described in Rivlin et al. (Surg. Neurol., 9, 39-43, 1979) and Khan et al. (Can. J. Neurol. Sci., 10, 161-165, 1983).”
Following 6 weeks of behavioral evaluation, the spinal cords were fixed by transcardial perfusion with 0.03M phosphate-buffered saline (pH 7.4) containing 1% sodium nitrite in rats anesthetized with Halothane, followed by perfusion (100 ml/100 g) with either 4% formaldehyde (freshly prepared from paraformaldehyde) or FAM solution (formaldehyde, acetic acid and methanol in 1:1:8 ratio) and left in the same fixative for 5 days. […] Area of white matter was quantified using Northern Eclipse™ software and expressed in pixels.

The subject of data set [6] is rats with acute physical insult to the CNS. The data set can be described thus: Inflammation (observation, ICAM-1 and iNOS levels) following insult. Particulars: OTC following insult, compared to saline-treated controls. How it is done: Inflammation was assessed by observation and by measurement of ICAM-1 and iNOS levels. A significant increase in inflammation was observed following insult.

The subject of data set [7] is Wistar rats with clip compression injury at the T6 spinal cord level. The data set can be described thus: Spinal cord glutathione reductase activity after clip compression injury at T6. The note with it: 24 hours following spinal cord injury; T5 (P<0.05), T6, T7, T9 (P<0.01) versus saline vehicle; FIG. 2. How it is done:
as §1, §2
Glutathione reductase was calculated by measuring the disappearance of NADPH (SIGMA (trade-mark)) in the presence of oxidized-glutathione based upon the procedure described by Eklow et al. (Eur. J. Biochem. 138, 459-463 (1984)), as applied in Juurlink et al (Glia 22, 371-378, 1998)).

The test system is the same in data set [8]. Description: Spinal cord protein carbonyl content after clip compression injury at T6. Particulars: 24 hours post-trauma; T5 (P<0.05), T6, T7 (P<0.01), T9 (P<0.05) versus saline; FIG. 3. How it is done:
as §1, with “cord.” for “cord. A 5-second clip compression injury was induced at the T6 spinal cord level using a modified Kerr-Lougheed aneurysm clip with a calibrated force of 50 g as described in Rivlin et al. (Surg. Neurol., 9, 39-43, 1979) and Khan et al. (Can. J. Neurol. Sci., 10, 161-165, 1983).”
as §2
Protein carbonyl content was determined spectrophotometrically using 2,4-dinitrophenylhydrazine (DNPH) to trap carbonyls with the adduct formed measured at 360 nm. Results are expressed as pmoles of DNPH incorporated per mg of protein calculated using a molar absorption coefficient of 22,000 M^−1 cm^−1 for aliphatic hydrazones.

`O=C1N[C@H](C(=O)O)CS1` [OTC, L-2-oxothiazolidine-4-carboxylate]: the brain damage score in data set [1] (1 week following insult, OTC 12 mmoles/kg 15 min after insult, then 4 mmoles/kg every 12 h for 3 days, saline score 2.67, FIG. 9) worked out at 1.86. Further, the “concentrations of GSH in the affected CNS regions” value in data set [1] (insult by a vascular event, compared to saline-treated animals) is reported as “higher concentrations of GSH”. Further, the “GSH levels in the affected CNS region” value in data set [2] is “increased GSH levels”. In data set [3] (6 weeks after trauma, scale 0-7, after trauma 1, saline 2.4, FIG. 8a), the “modified Tarlov score” value amounted to 4.1. The same compound displayed an angleboard capacity angle in data set [3] (6 weeks recovery, before insult 59°, after insult 28°, saline 32°, FIG. 7) of 42 °. Further, in data set [4], the “weight of animals 6 weeks after surgery” value was 434.3 ± 9.3 g. For the same compound, in data set [5], the “grey matter sparing at T6” value is listed as “did not result in grey matter sparing”. In addition, the “levels of inflammation (ICAM-1 and iNOS)” value in data set [6] is reported as “lower levels of inflammation”. In addition, the “glutathione reductase activity in spinal cord” value in data set [7] was “significantly inhibited the decrease in glutathione reductase activity”. In data set [8], the “protein carbonyl content in spinal cord” value is on record as “significantly decreased protein carbonyl formation”.

The values are drawn from patent US6413999B1, “Treatment for acute physical insult to the central nervous system” (University of Saskatchewan Technologies Inc., priority 1999, dated 2002).
